# Results: article PMC8922758, “A new therapeutic approach for bone metastasis in colorectal cancer: intratumoral melittin” (The Journal of Venomous Animals and Toxins Including …, 2022)
# Key:
# [1] = tested on: HT-29 CRC bone metastasis xenograft; assay: Bone metastasis in colorectal cancer mouse model, metastasis volume after intrametastatic injection; format: in vivo, Balb/c-nu mice
# Protocol: Six-week-old Balb/c-nu male mice (n = 9), weighing 23,76 ± 3,11 g, from Charles River Laboratories International Inc. (Wilmington, USA) were housed in individual ventilated racks. All animals were kept under controlled light conditions (12 h light/12 dark cycles), temperature (23 ± 1 °C), humidity (40%-60%), water, and feed ad libitum.
# The procedures were performed in a laminar flow with rigorous asepsis and antisepsis techniques. On day 0, to perform the cell inoculation, mice were anesthetized with xylazine hydrochloride 2% plus ketamine, diluted 1:2 (0.3 mL/20 g), and administered via intramuscular injection. Briefly, cells were suspended in 40 μL of saline. A percutaneous 45° puncture was performed. Bone scarification was performed with the bevel of the hypodermic needle carefully to avoid transfixing the skullcap. Then, without needle exchange, cells (4 × 10^6 cells) were injected over the periosteal in the parietal region using a 1 mL syringe and 36G caliber hypodermic needle.
# After xenograft, the animals were monitored daily. Metastasis was verified and measured every day. In case of signs, the animal is euthanized immediately. Metal calipers checked the volume. The growth curves were determined using the formula: Volume = L × S^2/2, where "S" is the smallest diameter measured and "L" is the largest diameter measured.
# After the tumor reached 100 mm^3 (by the 19th day after xenograft), the animals were randomized into groups:
# After anesthesia, 1,5 mg/kg single dose of melittin was injected in the metastasis with a sterile syringe, as deep as possible, without trespassing the tumor. Without removing the needle, 50 µL of solution was applied slowly for a homogenous distribution into the metastasis, equally distributed (10 µL) in the center and cardinal points. After the administration, the needle remained in the metastasis for 20 seconds before being slowly removed to avoid extravasation.
# [2] = tested on: HT-29 human colorectal cancer cells; assay: MTT cytotoxicity assay; format: cell-based; conditions: 48 h incubation
# Protocol: Human CRC (HT-29) was purchased from the European Collection of Authenticated Cell Cultures. It was thawed and propagated in […] flasks at 37 °C in a 5% CO2 humidified chamber (HeraCELL 150) in Dulbecco's modified Eagle's medium (DMEM; Sigma D-5648, São Paulo, Brazil) supplemented with 100 mM sodium pyruvate (Gibco, Thermo Fisher Scientific, Waltham, Massachusetts, USA), 10% fetal bovine serum (FBS) (Gibco, Fisher Scientific, Waltham, Massachusetts, USA), and 1% antibiotics (100 U/mL penicillin and 10 mg/mL streptomycin, Gibco). Cells were detached using 0.25% trypsin-EDTA (Gibco, Fisher Scientific, Waltham, Massachusetts, USA) at 37 °C for 3 min. DMEM plus 10% FBS was used to block the trypsin. The cell pellet was transferred to a new 75 cm^3 flask containing 10 mL DMEM. The culture medium was changed every 24 h. Cell viability was evaluated in the Neubauer chamber using Trypan Blue.
# To check the viability, the culture fluid is removed and 5 × 10^5cells per well were treated with melittin (0.0625, 0.125, 0.25, 0.5, 1.0, 2.0, 35 and 70 µM). After 48 h of incubation, MTT (3-(4,5-dimethylthiazol-2-yl)-2,5-diphenyltetrazolium bromide) 0.5 mg/mL was added to each well and incubated at 37 °C for 4 h to determine the number of living cells. […] Then, the optical density was detected by a microplate reader at a wavelength of 540 nm (EPOCH, BioTech Instrument Inc., Winooski, VT, USA). […]
# [3] = Mass spectrometry characterisation (aggregation state); format: physicochemical; conditions: LC-MS, Q-Exactive Plus, C18, before application in the animals
# From the text: The purity and identity were confirmed by mass spectrometry using a Q-Exactive Plus (Thermo Fisher Scientific, Waltham, Massachusetts, USA). The peptide was inserted into a C18 column (EASY-Spray™ LC Columns, Thermo Fisher Scientific, Waltham, Massachusetts, USA) coupled to a liquid chromatography binary system (EASY-nLC 1,200, Thermo Scientific, Waltham, Massachusetts, USA) and eluted with a gradient of 5%-80% of solvent A (water containing 0.1% formic acid) and B (90% acetonitrile containing 0.1% formic acid) with a constant flow of 100 nL/min. The eluted was automatically inserted in the mass spectrometer, operating in positive mode, in MS mode of a full scan of 300-1500 m/z.
# [4] = cited from earlier work
# From the text: The peptide inhibited approximately 50% of the growth of metastasis. […] In a recent paper melittin could be detected in patients up to 30 days after envenomation, clearly indicating bioaccumulation corroborating the effects of the single-dose treatment. Besides, melittin has the ability to improves sy ...
# [5] = tested on: HT-29 CRC bone metastasis xenograft; assay: Histopathological analysis of the metastasis; format: in vivo, Balb/c-nu mice; conditions: H&E
# From the text: After the anesthetic procedure by the parenteral anesthetic drug overdose, the animals were euthanized. The tumor was then resected entirely for anatomopathological analysis. The external surface of the sample was inspected. The opened and cleaned specimens were immersed in formalin overnight for fixation and embedded in paraffin. Metastasis was sliced to assess bone invasion. Tumor 3 µm sections were stained with hematoxylin-eosin and subjected to optical microscopy. Metastasis diagnosis and histological features were determined.
# [6] = Animal follow up: signs of toxicity, body weight, organ histopathology; format: in vivo, Balb/c-nu mice
# Protocol: Signals of suffering and toxicity were carefully observed daily. The following general behaviors were observed: low activity, appetite loss, personality changes, immobility, social isolation, urine and feces consistency changes, lack of personal hygiene, and self-mutilation. Specific to mice, weight loss, dehydration, piloerection, and screams when touched were evaluated.
# Moreover, immediately after euthanized, liver, kidneys, and heart were removed from the animals for histopathological analysis, which was conducted with the same method described above.
compound,measurement,setting,value
CC[C@H](C)[C@H](NC(=O)CN)C(=O)NCC(=O)N[C@@H](C)C(=O)N[C@H](C(=O)N[C@@H](CC(C)C)C(=O)N[C@@H](CCCCN)C(=O)N[C@H](C(=O)N[C@@H](CC(C)C)C(=O)N[C@H](C(=O)N[C@H](C(=O)NCC(=O)N[C@@H](CC(C)C)C(=O)N1CCC[C@H]1C(=O)N[C@@H](C)C(=O)N[C@@H](CC(C)C)C(=O)N[C@H](C(=O)N[C@@H](CO)C(=O)N[C@@H](Cc1c[nH]c2ccccc12)C(=O)N[C@H](C(=O)N[C@@H](CCCCN)C(=O)N[C@@H](CCCNC(=N)N)C(=O)N[C@@H](CCCCN)C(=O)N[C@@H](CCCNC(=N)N)C(=O)N[C@@H](CCC(N)=O)C(=O)N[C@@H](CCC(N)=O)C(N)=O)[C@@H](C)CC)[C@@H](C)CC)[C@@H](C)O)[C@@H](C)O)C(C)C)C(C)C [melittin],inhibition of growing metastasis,"[1]; 1,5 mg/kg single intrametastatic dose on day 19, 2 days after the treatment, n = 6 vs untreated n = 3, p < 0.001",approximately 50%
same,metastasis reduction,"[1]; after a single intrametastatic dose, 1,5 mg/kg",53%
same,metastasis regrowth,[1]; seven days after single-dose injection,metastases started growing again
same,maximum inhibition of HT-29 proliferation,"[2]; 2 µM, mean of triplicates",80%
same,decrease of the initial HT-29 cell number,"[2]; 0.0625-70 µM, triplicates",about 20%
same,aggregation state by mass spectrometry,[3],monomeric structure without aggregation
same,time melittin is detectable in patients after envenomation,[4],up to 30 days
same,"microscopy of treated metastasis, mitosis rate",[5]; melittin-treated animals n = 6,low mitosis rate
same,"microscopy of treated metastasis, tumor cells","[5]; last experimental day (day 27), n = 6",necrosis and absence of tumor cells
same,death or severe toxicity signs,"[6]; after intrametastatic treatment, 1,5 mg/kg single dose",no death or severe toxicity signs
same,signs of envenomation,"[6]; daily observation after 1,5 mg/kg single intrametastatic dose",did not show signs of envenomation
same,local reaction at injection site,"[6]; day 20, the day after intrametastatic injection of 1,5 mg/kg",local inflammation
same,"histopathological analysis of liver, kidney and heart","[6]; day 27, seven days after single dose, H&E",no signals of toxicity
same,body weight versus untreated animals,"[6]; three days after administration, p < 0.01, n = 6 vs n = 3",greater weight loss than those untreated
